In brackets after ≈: the same amount, converted by molar mass.
How the values were obtained:
apoptosis = details: reference 21; cited from earlier work
Fenretinide solubility = format: physicochemical
ATP binding sites of FAK = ATP binding sites of FAK (Homo sapiens, UniProt Q05397); details: cited from earlier work
[1] = system: OSCC migration and invasion; details: cited from earlier work
[2] = biological target: ATP binding sites of Pyk2 (Homo sapiens, UniProt Q14289); details: cited from earlier work
Sequence of ATP binding sites of Pyk2 (Q14289 whole entry): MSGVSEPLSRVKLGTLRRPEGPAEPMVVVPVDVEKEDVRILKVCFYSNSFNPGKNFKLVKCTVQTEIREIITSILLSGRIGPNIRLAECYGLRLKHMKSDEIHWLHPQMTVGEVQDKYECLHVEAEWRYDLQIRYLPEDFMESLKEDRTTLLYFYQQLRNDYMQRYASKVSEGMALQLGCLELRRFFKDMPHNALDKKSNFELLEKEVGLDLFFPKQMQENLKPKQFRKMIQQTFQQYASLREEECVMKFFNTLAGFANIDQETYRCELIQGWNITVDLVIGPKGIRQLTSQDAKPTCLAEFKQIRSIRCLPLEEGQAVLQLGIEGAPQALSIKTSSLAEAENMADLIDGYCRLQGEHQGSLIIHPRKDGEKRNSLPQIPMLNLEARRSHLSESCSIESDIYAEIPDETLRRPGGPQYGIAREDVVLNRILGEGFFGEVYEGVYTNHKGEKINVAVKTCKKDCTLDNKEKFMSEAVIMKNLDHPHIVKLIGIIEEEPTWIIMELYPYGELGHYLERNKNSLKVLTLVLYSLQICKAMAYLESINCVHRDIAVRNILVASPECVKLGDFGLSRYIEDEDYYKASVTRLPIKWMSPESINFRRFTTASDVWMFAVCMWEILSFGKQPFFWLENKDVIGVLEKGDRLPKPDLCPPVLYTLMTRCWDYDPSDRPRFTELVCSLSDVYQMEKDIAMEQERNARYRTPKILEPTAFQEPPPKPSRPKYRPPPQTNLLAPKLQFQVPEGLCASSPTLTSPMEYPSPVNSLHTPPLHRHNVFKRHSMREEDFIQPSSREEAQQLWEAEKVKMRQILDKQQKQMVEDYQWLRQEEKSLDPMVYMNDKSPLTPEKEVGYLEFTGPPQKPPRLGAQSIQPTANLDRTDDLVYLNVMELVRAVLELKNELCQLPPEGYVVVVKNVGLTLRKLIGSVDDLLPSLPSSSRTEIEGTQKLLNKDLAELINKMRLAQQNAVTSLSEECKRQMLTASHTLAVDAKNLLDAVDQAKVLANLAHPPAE

[3] = 4-HPR release from PLGA implants, tumor and sera levels (UPLC/UV); format: in vivo, nude mice
Description: Determination of 4-HPR tumor levels entailed recording tumor wet mass, addition of internal standard (acitretin) and RIPA lysis buffer, followed by homogenization, addition of acetonitrile and centrifugation. Acetretin percent recovery was compared to a RIPA buffer/acetonitrile extraction control solution spiked with equivalent amount of acetretin and 4-HPR. Sera preparation entailed addition of acetretin and acetonitrile, sonication, followed by centrifugation.
SCC2095sc cells [10^6 cells suspended in 100 μl Matrigel (Corning Life Sciences, Corning, N.Y.)] were subcutaneously injected in the flanks of 6 week old male nude mice (n=6 per treatment group). Tumor measurements were recorded daily with calipers (greatest length and greatest width) and final tumor volumes calculated via tumor volume V=(length×width)×½. Treatment groups consisted of: 1) control (PBS injections)+blank (no drug) PLGA implants, 2) 2-ME (1 μg/100 μl PBS, b.i.d.)+blank PLGA implant, 3) 4-HPR releasing PLGA implant+PBS injections, 4) TOC q.d. (0.3 μg/100 μl PBS)+PLGA blank implant, 5) 2-ME (1 μg/100 μl PBS, b.i.d.)+4-HPR releasing PLGA implant, 6) 2-ME (1 μg/100 μl PBS, b.i.d.)+TOC q.d. (0.3 μg/100 μl PBS)+blank PLGA implant, 7) TOC q.d. (0.3 μg/100 μl PBS)+4-HPR releasing PLGA implant, 8) 2-ME (1 μg/100 μl PBS, b.i.d.)+TOC q.d. (0.3 μg/100 μl PBS)+4-HPR releasing PLGA implant. By day 14 post injection, all mice had measurable tumors and treatment began on day 15. […] Pretreatment mean tumor volumes therefore varied among treatment groups. PLGA implants (via trocar) and injections were placed in the center of the tumor. At day 28 post OSCC xenograft placement final tumor measurements were obtained, the mice were euthanized and OSCC tumors along with lung, liver and sera were harvested for pharmacokinetic, histologic and IHC analyses (Ki-67, cleaved caspase-3 and involucrin). Image analyses of the nuclear stains (Ki-67 and cleaved caspase 3) were conducted using Image-Pro Plus 6.2 software (Media Cybernetics, Rockville, Md.).

IL-6 = IL-6 release from OSCC cells (ELISA); format: cell-based, human; details: 5 μM, fresh treatment q.d., base medium, 48 h
Procedure: Conditioned media from 24-hour sera-deprived JSCC-1, JSCC-2 and JSCC3 cells were analyzed using the Proteome Profiler Human Cytokine XL Array (R&D Systems, Minneapolis, Minn.), with image capture and analyses via the Li-Cor Odyssey imager and Image Studio software (Li-Cor Biosciences, Lincoln, Nebr.). Sera-free conditioned media for IL-6, VEGF, TGF-α and EGF were analyzed by ELISAs (R&D Systems, Minneapolis, Minn.), with data expressed as pg/10^6 cells.
) 0.01% DMSO (vehicle control), 2) 5 μM 4-HPR, 3) 2.5 μM 2-ME, 4) 1 μg/ml tocilizumab (TOC, […]) 5) 5 μM 4-HPR+2.5 μM 2-ME, 6) 5 μM 4-HPR+1 μg/ml TOC, 7) 2.5 μM 2-ME+1 μg/ml TOC, 8) 5 μM 4-HPR+2.5 μM 2-ME+1 μg/ml TOC. Following treatment, conditioned media were collected (ELISAs for IL-6, sIL-6R, TGF-α, VEGF, EGF, R&D Systems, Minneapolis, Minn.) and nuclear and cytosolic lysates (Nuclear Extract Kit, Active Motif, Carlsbad, Calif.) isolated for EMSAs (STAT3, NFκB p50 and p65, TransAM Transcription Factor ELISAs, Active Motif) and cytosolic and nuclear extracts for Westerns (NE-PER Nuclear and Cytoplasmic Extraction Reagents, ThermoFisher Scientific, Waltham Mass.). […]

[4] = cited from earlier work

Sequence of ATP binding sites of FAK (Q05397 whole entry): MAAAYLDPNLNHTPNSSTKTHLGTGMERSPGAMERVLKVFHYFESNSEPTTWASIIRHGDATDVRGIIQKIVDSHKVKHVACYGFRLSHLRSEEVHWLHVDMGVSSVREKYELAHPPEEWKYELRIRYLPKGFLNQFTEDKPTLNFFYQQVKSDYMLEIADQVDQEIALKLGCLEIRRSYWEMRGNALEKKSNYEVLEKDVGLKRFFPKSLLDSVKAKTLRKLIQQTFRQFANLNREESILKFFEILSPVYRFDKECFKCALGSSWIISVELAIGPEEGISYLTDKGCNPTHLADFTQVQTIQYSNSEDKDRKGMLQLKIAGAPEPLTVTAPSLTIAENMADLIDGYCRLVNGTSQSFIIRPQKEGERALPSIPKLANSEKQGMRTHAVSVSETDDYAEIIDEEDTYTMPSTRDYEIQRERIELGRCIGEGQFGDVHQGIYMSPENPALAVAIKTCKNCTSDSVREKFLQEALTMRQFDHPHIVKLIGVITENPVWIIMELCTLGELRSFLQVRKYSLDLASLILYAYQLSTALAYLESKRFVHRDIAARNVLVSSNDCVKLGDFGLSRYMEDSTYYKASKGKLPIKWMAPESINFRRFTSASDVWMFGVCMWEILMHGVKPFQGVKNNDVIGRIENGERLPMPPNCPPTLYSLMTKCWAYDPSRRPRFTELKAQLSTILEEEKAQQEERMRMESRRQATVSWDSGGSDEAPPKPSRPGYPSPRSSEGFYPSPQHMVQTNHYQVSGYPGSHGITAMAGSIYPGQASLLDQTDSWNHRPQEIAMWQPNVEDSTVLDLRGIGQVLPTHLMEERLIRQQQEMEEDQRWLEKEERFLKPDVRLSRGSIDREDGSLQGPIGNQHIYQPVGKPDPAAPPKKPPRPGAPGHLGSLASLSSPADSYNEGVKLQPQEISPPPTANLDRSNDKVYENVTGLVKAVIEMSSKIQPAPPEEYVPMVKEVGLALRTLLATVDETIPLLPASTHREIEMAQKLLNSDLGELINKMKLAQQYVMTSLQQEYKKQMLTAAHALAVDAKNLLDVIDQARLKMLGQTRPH

CC1=C(/C=C/C(C)=C/C=C/C(C)=C/C(=O)Nc2ccc(O)cc2)C(C)(C)CCC1 [4-HPR, 4-hydroxy(phenyl)retinamide]
apoptosis-inducing concentration (apoptosis): 10 µM | water solubility (Fenretinide solubility): below HPLC detection limit | solubility (Fenretinide solubility; PBS+0.084% Tween 80, same as in bovine serum): 21 µg/mL (≈ 53.6 µM) | binding to ATP binding site (ATP binding sites of FAK): binds with high affinity | OSCC migration and invasion [1]: significantly inhibits | binding to ATP binding site [2]: binds with high affinity | detectable levels in the sera ([3]; 4-HPR or its metabolites, any animals): absence of any detectable levels | concentration at 28 days post xenograft placement (treatment began on day 15) ([3]; male, nude, mouse, serum, all mice that received PLGA implants, below LLOQ): < 50 ng/mL | increase of IL-6 release (IL-6; JSCC1 cells): ~50% | increase of IL-6 release (IL-6; JSCC2 cells): ~20% | log P [4]: 8.03

Reference: US11484591B2, “Chemoprevention using controlled-release formulations of anti-interleukin 6 agents, synthetic vitamin A analogues or metabolites, and estradiol metabolites” (OHIO STATE INNOVATION FOUNDATION, priority 2016, dated 2022)
